Assay results from the supplement of paper PMC10307832.

Tests used:
Assay in all cases: relative viability (nuclei count vs DMSO), 5 days (fraction); higher = more cells survive
LCLC-97TM1 = system: LCLC-97TM1
How it was run: (§1)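 One day after seeding in 1536-well plates, lung cancer cell lines were dosed by pin tool. Dosing was either single-drug or a fixed anchor-drug dose plus five library-drug doses (not always all listed) in √10 steps. After 5 days, nuclei were stained in one fix-and-stain step and counted on 4× images, and relative viability is the nuclei count of treated wells over that of vehicle wells, given as the median of duplicate plates.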

BEN = system: BEN
How it was run: as §1

NCI-H2085 = system: NCI-H2085
How it was run: as §1

SW 1573 = system: SW 1573
How it was run: as §1

HOP-62 = system: HOP-62
How it was run: as §1

EPLC-272H = system: EPLC-272H
How it was run: as §1

PC-3 [JPC-3] = system: PC-3 [JPC-3]
How it was run: as §1

LOU-NH91 = system: LOU-NH91
How it was run: as §1

EKVX = system: EKVX
How it was run: as §1

NCI-H1975 = system: NCI-H1975
How it was run: as §1

NCI-H2087 = system: NCI-H2087
How it was run: as §1

HCC-827 = system: HCC-827
How it was run: as §1

HCC-44 = system: HCC-44
How it was run: as §1

NCI-H1666 = system: NCI-H1666
How it was run: as §1

NCI-H647 = system: NCI-H647
How it was run: as §1

201T = system: 201T
How it was run: as §1

NCI-H1437 = system: NCI-H1437
How it was run: as §1

H3255 = system: H3255
How it was run: as §1

COR-L 105 = system: COR-L 105
How it was run: as §1

NCI-H2126 = system: NCI-H2126
How it was run: as §1

LU99A = system: LU99A
How it was run: as §1

`C[C@@H]1CN(CC(=O)Nc2ccc3c(c2)Cc2cccc(-c4cc(=O)cc(N5CCOCC5)o4)c2S3)C[C@H](C)O1` + CC(C)C[C@H](NC(=O)[C@H](Cc1ccccc1)NC(=O)c1cnccn1)B(O)O [Bortezomib] (partner 0.002 µM) gave a relative viability (LCLC-97TM1; first compound 0.1265 µM) of 0.615, a relative viability (LCLC-97TM1; first compound 0.4 µM) of 0.33 and a relative viability (LCLC-97TM1; first compound 4 µM) of 0.391. For the same compound, the relative viability (BEN; first compound 0.04 µM) was 0.624, the relative viability (BEN; first compound 0.1265 µM) was 0.71 and the relative viability (BEN; first compound 0.4 µM) was 0.861. It also gave a relative viability (BEN; first compound 4 µM) of 0.788, a relative viability (NCI-H2085; first compound 0.04 µM) of 0.999 and a relative viability (NCI-H2085; first compound 0.1265 µM) of 1.04. For the same compound, the relative viability (NCI-H2085; first compound 0.4 µM) was 0.975, the relative viability (NCI-H2085; first compound 4 µM) was 0.805 and the relative viability (SW 1573; first compound 0.04 µM) was 1.17. It also gave a relative viability (SW 1573; first compound 0.1265 µM) of 1.15, a relative viability (SW 1573; first compound 0.4 µM) of 0.926 and a relative viability (SW 1573; first compound 4 µM) of 0.976. It also gave a relative viability (HOP-62; first compound 0.04 µM) of 0.677, a relative viability (HOP-62; first compound 0.1265 µM) of 0.548 and a relative viability (HOP-62; first compound 0.4 µM) of 0.755. For the same compound, the relative viability (HOP-62; first compound 4 µM) was 1.02, the relative viability (EPLC-272H; first compound 0.04 µM) was 0.925 and the relative viability (EPLC-272H; first compound 0.1265 µM) was 0.894. For the same compound, the relative viability (EPLC-272H; first compound 0.4 µM) was 1.03, the relative viability (EPLC-272H; first compound 4 µM) was 0.993 and the relative viability (PC-3 [JPC-3]; first compound 0.04 µM) was 0.861. The relative viability (PC-3 [JPC-3]; first compound 0.1265 µM) was 0.771, the relative viability (PC-3 [JPC-3]; first compound 0.4 µM) was 0.908 and the relative viability (PC-3 [JPC-3]; first compound 4 µM) was 0.677. It also gave a relative viability (LOU-NH91; first compound 0.04 µM) of 0.495, a relative viability (LOU-NH91; first compound 0.1265 µM) of 0.446 and a relative viability (LOU-NH91; first compound 0.4 µM) of 0.428. It also gave a relative viability (LOU-NH91; first compound 4 µM) of 0.527, a relative viability (EKVX; first compound 0.04 µM) of 1.19 and a relative viability (EKVX; first compound 0.1265 µM) of 1.02. The relative viability (EKVX; first compound 0.4 µM) was 0.945, the relative viability (EKVX; first compound 4 µM) was 0.705 and the relative viability (NCI-H1975; first compound 0.04 µM) was 0.394. For the same compound, the relative viability (NCI-H1975; first compound 0.1265 µM) was 0.415, the relative viability (NCI-H1975; first compound 0.4 µM) was 0.39 and the relative viability (NCI-H1975; first compound 4 µM) was 0.27. It also gave a relative viability (NCI-H2087; first compound 0.04 µM) of 0.751, a relative viability (NCI-H2087; first compound 0.1265 µM) of 0.808 and a relative viability (NCI-H2087; first compound 0.4 µM) of 0.948. For the same compound, the relative viability (NCI-H2087; first compound 4 µM) was 0.652, the relative viability (HCC-827; first compound 0.04 µM) was 1.01 and the relative viability (HCC-827; first compound 0.1265 µM) was 1.02. It also gave a relative viability (HCC-827; first compound 0.4 µM) of 1.06, a relative viability (HCC-827; first compound 4 µM) of 1.09 and a relative viability (HCC-44; first compound 0.04 µM) of 0.952. For the same compound, the relative viability (HCC-44; first compound 0.1265 µM) was 0.938, the relative viability (HCC-44; first compound 0.4 µM) was 0.982 and the relative viability (HCC-44; first compound 4 µM) was 0.796. It also gave a relative viability (NCI-H1666; first compound 0.04 µM) of 0.872, a relative viability (NCI-H1666; first compound 0.1265 µM) of 0.993 and a relative viability (NCI-H1666; first compound 0.4 µM) of 0.823. It also gave a relative viability (NCI-H1666; first compound 4 µM) of 0.643, a relative viability (NCI-H647; first compound 0.04 µM) of 1 and a relative viability (NCI-H647; first compound 0.1265 µM) of 1.02. For the same compound, the relative viability (NCI-H647; first compound 0.4 µM) was 0.985, the relative viability (NCI-H647; first compound 4 µM) was 0.484 and the relative viability (201T; first compound 0.04 µM) was 1.12. The relative viability (201T; first compound 0.1265 µM) was 1.04, the relative viability (201T; first compound 0.4 µM) was 1.16 and the relative viability (201T; first compound 4 µM) was 1.09. For the same compound, the relative viability (NCI-H1437; first compound 0.04 µM) was 0.486, the relative viability (NCI-H1437; first compound 0.1265 µM) was 0.529 and the relative viability (NCI-H1437; first compound 0.4 µM) was 0.489. For the same compound, the relative viability (NCI-H1437; first compound 4 µM) was 0.45, the relative viability (H3255; first compound 0.04 µM) was 0.495 and the relative viability (H3255; first compound 0.1265 µM) was 0.771. The relative viability (H3255; first compound 0.4 µM) was 0.534, the relative viability (H3255; first compound 4 µM) was 0.582 and the relative viability (COR-L 105; first compound 0.04 µM) was 0.741. For the same compound, the relative viability (COR-L 105; first compound 0.1265 µM) was 0.896, the relative viability (COR-L 105; first compound 0.4 µM) was 1.1 and the relative viability (COR-L 105; first compound 4 µM) was 0.484. For the same compound, the relative viability (NCI-H2126; first compound 0.04 µM) was 1.13, the relative viability (NCI-H2126; first compound 0.1265 µM) was 1.12 and the relative viability (NCI-H2126; first compound 0.4 µM) was 1.17. It also gave a relative viability (NCI-H2126; first compound 4 µM) of 1.06, a relative viability (LU99A; first compound 0.04 µM) of 1.11 and a relative viability (LU99A; first compound 0.1265 µM) of 1.15. For the same compound, the relative viability (LU99A; first compound 0.4 µM) was 1.11 and the relative viability (LU99A; first compound 4 µM) was 1.1.
